Patent US12637452B2, “Crystalline forms of a substituted imidazopyridine compound and use thereof as P2X3 modulator” (GlaxoSmithKline Intellectual Property (No. 3) Limited, priority 2018, dated 2026)
≈ marks a conversion by molar mass, not a printed value. Values belong to the molecule of their own block, whether it stands above or below them.

Columns and labels:
Assay type in all cases: physicochemical
[1] = Approximate solubility of starting material in 28 solvents at RT; conditions: 25 °C, thermodynamic from solid, starting material Form A0
Procedure: Approximate solubility of starting material (Compound 1, Form A0) was determined in 28 solvents at RT (25±3° C.). ˜2 mg of the starting material was added into each 3-mL glass vial. Solvents were then added stepwise (50/50/200/700 μL per step) into the vials until the solids were dissolved visually or a total volume of 1 mL was reached. Solubility results summarized in Table 2 were used to guide the solvent selection in screening design.

[2] = Dynamic vapor sorption (DVS) test, water uptake and form stability as a function of relative humidity
Procedure: DVS test was performed using an SMS (Surface Measurement Systems) DVS Intrinsic instrument. The relative humidity were calibrated against deliquescence point of LiCl, Mg(NO3)2 and KCl. The following instrument parameters were used at 25° C. and 40° C.:
DVS test was performed for Type A* family to investigate its form stability as a function of relative humidity. The DVS test was first conducted in a couple of cycles with different ends (30% and 95% RH) at 25° C. The samples were equilibrated at each RH point until wt % change was lower than 0.002% or the total time reached 3 hrs.
The crystal forms after DVS test were detected by XRPD. For the cycle (ambient RH-95% RH-0% RH-30% RH), the crystal form after DVS test was determined to be Type A (FIG. 5), corresponding to the ambient humidity (61.5% RH) when performing XRPD analysis. While for the cycle (ambient RH-95% RH-0% RH-95% RH), Type A1 was observed after DVS test (FIG. 7), corresponding to the ambient humidity (66.3% RH) when performing XRPD analysis.
DVS test was also conducted in the cycle (ambient RH-95% RH-0% RH-95% RH) at 40° C.

[3] = Theoretical maxima water uptake of a monohydrate from the single crystal structure; conditions: only lattice waters considered
Text: A single crystal structure of Compound 1 Type A* family (form Type A0) was collected using crystals grown in ACN/H2O (1:3, v/v). Data were collected at 123 K using a Bruker D8 VENTURE diffractometer (Mo/Kα λ=0.71073 Å) with the following instrument parameters:
From the single crystal structure, there are four possible hydration sites in the unit cell. If each of the hydration sites is occupied by one water molecule, a monohydrate would be expected, which should correspond to the theoretical maxima water incorporation in the crystal lattice of Type A* family crystals. For a monohydrate, if only lattice waters are considered, the theoretical maxima water uptake is 3.9%, which is very close to the experimental DVS results (˜4.1-4.2% at 100% RH at 25° C.). In addition, there may be less than one water molecule on each hydration site because of the disorder, and a stoichiometry of less than 1:1 for water:API may be expected in an actual Type A* family crystal which is consistent with the almost linear increase/decrease of water content as a function of humidity in the DVS test.

solubility ([1]; organic solvent or mixture, solvent 1,2-Dichloroethane, RT (25±3° C.)): > 38000 µg/mL
solubility ([1]; organic solvent or mixture, solvent 1,4-Dioxane, RT (25±3° C.)): 2400 to 8000 µg/mL (≈ 5.23 to 17.4 mM)
solubility ([1]; organic solvent or mixture, solvent 1-Propanol, RT (25±3° C.)): > 38000 µg/mL
solubility ([1]; organic solvent or mixture, solvent 2-MeTHF, RT (25±3° C.)): 1800 to 6000 µg/mL (≈ 3.93 to 13.1 mM)
solubility ([1]; organic solvent or mixture, solvent ACN, RT (25±3° C.)): 20000 to 40000 µg/mL (≈ 43.6 to 87.2 mM)
solubility ([1]; organic solvent or mixture, solvent Acetone, RT (25±3° C.)): 19000 to 38000 µg/mL (≈ 41.4 to 82.9 mM)
solubility ([1]; organic solvent or mixture, solvent Anisole, RT (25±3° C.)): 2000 to 6700 µg/mL (≈ 4.36 to 14.6 mM)
solubility ([1]; organic solvent or mixture, solvent Butyl acetate, RT (25±3° C.)): < 2400 µg/mL
solubility ([1]; organic solvent or mixture, solvent CHCl3, RT (25±3° C.)): > 40000 µg/mL
solubility ([1]; organic solvent or mixture, solvent DCM, RT (25±3° C.)): > 40000 µg/mL
solubility ([1]; organic solvent or mixture, solvent DMF, RT (25±3° C.)): > 38000 µg/mL
solubility ([1]; organic solvent or mixture, solvent DMSO, RT (25±3° C.)): > 48000 µg/mL
solubility ([1]; organic solvent or mixture, solvent Diethyleneglycol, RT (25±3° C.)): 2400 to 8000 µg/mL (≈ 5.23 to 17.4 mM)
solubility ([1]; organic solvent or mixture, solvent Dimethoxyethane, RT (25±3° C.)): 6700 to 20000 µg/mL (≈ 14.6 to 43.6 mM)
solubility ([1]; organic solvent or mixture, solvent EtOAc, RT (25±3° C.)): < 2000 µg/mL
solubility ([1]; organic solvent or mixture, solvent EtOH, RT (25±3° C.)): > 46000 µg/mL
solubility ([1]; organic solvent or mixture, solvent IPA, RT (25±3° C.)): 20000 to 40000 µg/mL (≈ 43.6 to 87.2 mM)
solubility ([1]; organic solvent or mixture, solvent IPAc, RT (25±3° C.)): < 1900 µg/mL
solubility ([1]; organic solvent or mixture, solvent MEK, RT (25±3° C.)): 7700 to 23000 µg/mL (≈ 16.8 to 50.2 mM)
solubility ([1]; organic solvent or mixture, solvent MIBK, RT (25±3° C.)): < 2200 µg/mL
solubility ([1]; organic solvent or mixture, solvent MTBE, RT (25±3° C.)): < 2200 µg/mL
solubility ([1]; organic solvent or mixture, solvent MeOH, RT (25±3° C.)): > 44000 µg/mL
solubility ([1]; organic solvent or mixture, solvent THF, RT (25±3° C.)): > 46000 µg/mL
solubility ([1]; organic solvent or mixture, solvent Toluene, RT (25±3° C.)): < 2000 µg/mL
solubility ([1]; organic solvent or mixture, solvent n-Butanol, RT (25±3° C.)): > 42000 µg/mL
solubility ([1]; organic solvent or mixture, solvent n-Heptane, RT (25±3° C.)): < 1900 µg/mL
solubility ([1]; organic solvent or mixture, solvent n-Hexane, RT (25±3° C.)): < 2200 µg/mL
solubility ([1]; water, solvent H2O, RT (25±3° C.)): < 2400 µg/mL
Structure (SMILES): CNC(=O)c1cc(F)c(-c2nc3cc(C)ccn3c2C[C@H]2CN(C(=O)OC)CCO2)c(F)c1 [Compound 1, methyl (S)-2-((2-(2,6-difluoro-4-(methylcarbamoyl)phenyl)-7-methylimidazo[1,2-a]pyridin-3-yl)methyl)morpholine-4-carboxylate]

crystal form after DVS test (XRPD) ([2]; 25° C., cycle ambient RH-95% RH-0% RH-30% RH, ambient humidity 61.5% RH at XRPD analysis): Type A
crystal form after DVS test (XRPD) ([2]; 25° C., cycle ambient RH-95% RH-0% RH-95% RH, ambient humidity 66.3% RH at XRPD analysis): Type A1
crystal form after DVS test (XRPD) ([2]; 40° C., cycle ambient RH-95% RH-0% RH-95% RH, ambient humidity 69.5% RH at XRPD test): Type A1
water uptake, experimental DVS results ([2]; at 100% RH at 25° C.): 4.1-4.2%
theoretical maxima water uptake [3]: 3.9%
Structure (SMILES): CNC(=O)c1cc(F)c(-c2nc3cc(C)ccn3c2C[C@H]2CN(C(=O)OC)CCO2)c(F)c1 [Type A* family, methyl (S)-2-((2-(2,6-difluoro-4-(methylcarbamoyl)phenyl)-7-methylimidazo[1,2-a]pyridin-3-yl)methyl)morpholine-4-carboxylate]
